Laboratory results as given in US8802597B2, “Herbicidal pyrimidines” (E I du Pont de Nemours and Company, priority 2003, dated 2014).

Tests used:
Type in all cases: in vivo
[1] = system: Surinam grass (Brachiaria decumbens); assay: Test B pre/postemergence
In short: (§1)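 Following sowing, compounds in a surfactant-bearing non-phytotoxic solvent were applied preemergence; emerged plants 2 to 18 cm high got postemergence treatment concurrently. Evaluation: 13 to 15 days later, greenhouse, 0–100 visual scale.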

[2] = system: barnyardgrass (Echinochloa crus-galli); assay: Test B pre/postemergence
In short: as §1

[3] = system: cocklebur (Xanthium strumarium); assay: Test B pre/postemergence
In short: as §1

corn (Zea mays) = assay: Test B pre/postemergence
In short: as §1

[4] = system: crabgrass (Digitaria sanguinalis); assay: Test B pre/postemergence
In short: as §1

[5] = system: giant foxtail (Setaria faberii); assay: Test B pre/postemergence
In short: as §1

[6] = system: lambsquarters (Chenopodium album); assay: Test B pre/postemergence
In short: as §1

[7] = system: morningglory (Ipomoea coccinea); assay: Test B pre/postemergence
In short: as §1

[8] = system: pigweed (Amaranthus retroflexus); assay: Test B pre/postemergence
In short: as §1

[9] = system: velvetleaf (Abutilon theophrasti); assay: Test B pre/postemergence
In short: as §1

[10] = system: wheat (Triticum aestivum); assay: Test B pre/postemergence
In short: as §1

[11] = system: blackgrass (Alopecurus myosuroides); assay: Test B postemergence
In short: as §1

wild oat (Avena fatua) = assay: Test B postemergence
In short: as §1

[12] = system: barnyardgrass (Echinochloa crus-galli); assay: Test B flooded paddy test; conditions: Flood, 1000 g ai/ha; scale 0 (no effect) to 100 (complete control)
In short: (§2)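 Rice, umbrella sedge, duck salad and barnyardgrass grown to 2-leaf stage under flooded paddy conditions and treated with formulated test chemicals. Kept in greenhouse 13–15 days, then visually rated against untreated controls on a 0–100 scale (0 no effect, 100 complete control).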

[13] = system: duck salad (Heteranthera limosa); assay: Test B flooded paddy test; conditions: Flood, 1000 g ai/ha; scale 0 to 100
In short: as §2

rice (Oryza sativa) = assay: Test B flooded paddy test; conditions: Flood, 1000 g ai/ha; scale 0 to 100
In short: as §2

[14] = system: umbrella sedge (Cyperus difformis); assay: Test B flooded paddy test; conditions: Flood, 1000 g ai/ha; scale 0 to 100
In short: as §2

[15] = Postemergence, 125 g ai/ha, scale 0 to 100 (0 no effect, 100 complete control)
[16] = Postemergence, 500 g ai/ha, scale 0 to 100
[17] = Preemergence, 125 g ai/ha, scale 0 to 100 (0 no effect, 100 complete control)
[18] = Preemergence, 500 g ai/ha, scale 0 to 100 (0 no effect, 100 complete control)
[19] = 125 g ai/ha, scale 0 to 100 (0 no effect, 100 complete control)

CNN=Cc1nc(C2CC2)nc(N)c1Br [Compound 49]
Surinam Grass plant response rating [1, 15]: 10
Plant response rating, Surinam Grass [1, 16]: 60
Plant response rating, Surinam Grass [1, 17]: 40
Surinam Grass plant response rating [1, 18]: 60
Barnyardgrass plant response rating [2, 15]: 30
Plant response rating, Barnyardgrass [2, 16]: 70
Plant response rating, Barnyardgrass [2, 17]: 30
Barnyardgrass plant response rating [2, 18]: 60
Cocklebur plant response rating [3, 15]: 90
Plant response rating, Cocklebur [3, 16]: 100
Plant response rating, Cocklebur [3, 17]: 80
Cocklebur plant response rating [3, 18]: 90
Corn plant response rating (corn (Zea mays); [15]): 0
Plant response rating, Corn (corn (Zea mays); [16]): 30
Plant response rating, Corn (corn (Zea mays); [17]): 10
Corn plant response rating (corn (Zea mays); [18]): 40
Crabgrass plant response rating [4, 15]: 30
Plant response rating, Crabgrass [4, 16]: 80
Plant response rating, Crabgrass [4, 17]: 80
Crabgrass plant response rating [4, 18]: 90
Foxtail, Giant plant response rating [5, 15]: 10
Plant response rating, Foxtail, Giant [5, 16]: 70
Plant response rating, Foxtail, Giant [5, 17]: 40
Foxtail, Giant plant response rating [5, 18]: 70
Lambsquarters plant response rating [6, 15]: 80
Plant response rating, Lambsquarters [6, 16]: 90
Plant response rating, Lambsquarters [6, 17]: 90
Lambsquarters plant response rating [6, 18]: 100
Morningglory plant response rating [7, 15]: 90
Plant response rating, Morningglory [7, 16]: 100
Plant response rating, Morningglory [7, 17]: 80
Morningglory plant response rating [7, 18]: 100
Pigweed plant response rating [8, 15]: 90
Plant response rating, Pigweed [8, 16]: 90
Plant response rating, Pigweed [8, 17]: 90
Pigweed plant response rating [8, 18]: 100
Velvetleaf plant response rating [9, 15]: 50
Plant response rating, Velvetleaf [9, 16]: 80
Plant response rating, Velvetleaf [9, 17]: 80
Velvetleaf plant response rating [9, 18]: 90
Wheat plant response rating [10, 15]: 30
Plant response rating, Wheat [10, 16]: 40
Plant response rating, Wheat [10, 17]: 30
Plant response rating, Wheat [10, 18]: 70
Blackgrass plant response rating [11, 19]: 20
Plant response rating, Blackgrass ([11]; 500 g ai/ha, scale 0 to 100): 50
Oat, Wild plant response rating (wild oat (Avena fatua); [19]): 30
Plant response rating, Oat, Wild (wild oat (Avena fatua); 500 g ai/ha, scale 0 to 100): 60
Plant response rating, Barnyardgrass [12]: 50
Plant response rating, Ducksalad [13]: 60
Plant response rating, Rice (rice (Oryza sativa)): 30
Plant response rating, Sedge, Umbrella [14]: 70
